Laboratory results reported in the NIST ThermoML archive (doi:10.1016/j.jct.2016.01.028).
± gives the expanded uncertainty stated by the source.

Test: xn = mol fraction of the nth substance listed
Details: 102 kPa, Liquid; for speed of sound: Frequency=5 MHz, Single path-length method; for mass density: Vibrating tube method

## CCCC(=O)[O-].C[NH2+]CCO [N-methyl-2-hydroxyethylammonium butanoate] + O
318.15 K, x1 = 0.0199
  speed of sound: 1647.8 ± 14 m/s
  mass density: 1001.5 ± 4 kg/m3
318.15 K, x1 = 0.0497
  speed of sound: 1732.5 ± 14 m/s
  mass density: 1024.6 ± 4 kg/m3
318.15 K, x1 = 0.1005
  speed of sound: 1734.2 ± 14 m/s
  mass density: 1029.1 ± 4 kg/m3
318.15 K, x1 = 0.196
  speed of sound: 1683.1 ± 14 m/s
  mass density: 1038.3 ± 4 kg/m3
318.15 K, x1 = 0.3008
  speed of sound: 1671.7 ± 14 m/s
  mass density: 1040.1 ± 4 kg/m3
318.15 K, x1 = 0.4005
  speed of sound: 1630.6 ± 14 m/s
  mass density: 1036.4 ± 4 kg/m3
318.15 K, x1 = 0.509
  speed of sound: 1610.7 ± 14 m/s
  mass density: 1034 ± 4 kg/m3
318.15 K, x1 = 0.5968
  speed of sound: 1596.6 ± 14 m/s
  mass density: 1032.1 ± 4 kg/m3
318.15 K, x1 = 0.8069
  speed of sound: 1566.8 ± 14 m/s
  mass density: 1028.1 ± 4 kg/m3
318.15 K, x1 = 1
  speed of sound: 1499.4 ± 14 m/s
  mass density: 1021.9 ± 4 kg/m3
323.15 K, x1 = 0.0199
  speed of sound: 1648.4 ± 14 m/s
  mass density: 997.6 ± 4 kg/m3
323.15 K, x1 = 0.0497
  speed of sound: 1725 ± 14 m/s
  mass density: 1022 ± 4 kg/m3
323.15 K, x1 = 0.1005
  speed of sound: 1724.5 ± 14 m/s
  mass density: 1026.2 ± 4 kg/m3
323.15 K, x1 = 0.196
  speed of sound: 1669 ± 14 m/s
  mass density: 1035.2 ± 4 kg/m3
323.15 K, x1 = 0.3008
  speed of sound: 1656.6 ± 14 m/s
  mass density: 1036.9 ± 4 kg/m3
323.15 K, x1 = 0.4005
  speed of sound: 1614.8 ± 14 m/s
  mass density: 1033.3 ± 4 kg/m3
323.15 K, x1 = 0.509
  speed of sound: 1594.8 ± 14 m/s
  mass density: 1030.9 ± 4 kg/m3
323.15 K, x1 = 0.5968
  speed of sound: 1580.8 ± 14 m/s
  mass density: 1028.9 ± 4 kg/m3
323.15 K, x1 = 0.8069
  speed of sound: 1550.9 ± 14 m/s
  mass density: 1024.9 ± 4 kg/m3
323.15 K, x1 = 1
  speed of sound: 1481.3 ± 14 m/s
  mass density: 1018.5 ± 4 kg/m3
328.15 K, x1 = 0.0199
  speed of sound: 1648.9 ± 14 m/s
  mass density: 993.7 ± 4 kg/m3
328.15 K, x1 = 0.0497
  speed of sound: 1717.5 ± 14 m/s
  mass density: 1019.4 ± 4 kg/m3
328.15 K, x1 = 0.1005
  speed of sound: 1714.7 ± 14 m/s
  mass density: 1023.2 ± 4 kg/m3
328.15 K, x1 = 0.196
  speed of sound: 1654.9 ± 14 m/s
  mass density: 1032.2 ± 4 kg/m3
328.15 K, x1 = 0.3008
  speed of sound: 1641.6 ± 14 m/s
  mass density: 1033.8 ± 4 kg/m3
328.15 K, x1 = 0.4005
  speed of sound: 1599 ± 14 m/s
  mass density: 1030.1 ± 4 kg/m3
328.15 K, x1 = 0.509
  speed of sound: 1579 ± 14 m/s
  mass density: 1027.7 ± 4 kg/m3
328.15 K, x1 = 0.5968
  speed of sound: 1565.1 ± 14 m/s
  mass density: 1025.6 ± 4 kg/m3
328.15 K, x1 = 0.8069
  speed of sound: 1535 ± 14 m/s
  mass density: 1021.6 ± 4 kg/m3
328.15 K, x1 = 1
  speed of sound: 1467.2 ± 14 m/s
  mass density: 1015.2 ± 4 kg/m3
333.15 K, x1 = 0.0199
  speed of sound: 1649.5 ± 14 m/s
  mass density: 989.9 ± 4 kg/m3
333.15 K, x1 = 0.0497
  speed of sound: 1709.9 ± 14 m/s
  mass density: 1016.8 ± 4 kg/m3
333.15 K, x1 = 0.1005
  speed of sound: 1704.9 ± 14 m/s
  mass density: 1020.3 ± 4 kg/m3
333.15 K, x1 = 0.196
  speed of sound: 1640.8 ± 14 m/s
  mass density: 1029.1 ± 4 kg/m3
333.15 K, x1 = 0.3008
  speed of sound: 1626.5 ± 14 m/s
  mass density: 1030.7 ± 4 kg/m3
333.15 K, x1 = 0.4005
  speed of sound: 1583.1 ± 14 m/s
  mass density: 1026.9 ± 4 kg/m3
333.15 K, x1 = 0.509
  speed of sound: 1563.1 ± 14 m/s
  mass density: 1024.5 ± 4 kg/m3
333.15 K, x1 = 0.5968
  speed of sound: 1549.3 ± 14 m/s
  mass density: 1022.4 ± 4 kg/m3
333.15 K, x1 = 0.8069
  speed of sound: 1519.1 ± 14 m/s
  mass density: 1018.3 ± 4 kg/m3
333.15 K, x1 = 1
  speed of sound: 1451.2 ± 14 m/s
  mass density: 1011.9 ± 4 kg/m3
